*1 amine or outer side, *2 acyl side, *3 side chain or, on linkers, in order; H or OH if unused. Where a SMILES comes first, the peptide text is derived from it. Bridges are numbered along the chain shown (N, C = ends). [ ]: non-standard residue; d: D form. X5 = CC(C)c1cccc(-c2cccc3c(C[C@H](N[*:1])C(=O)[*:2])c[nH]c23)c1; X8 = COc1cccc(-c2cccc3c(C[C@H](N[*:1])C(=O)[*:2])c[nH]c23)c1; X7 = O=C([C@H](Cc1c[nH]c2cc(-c3ccccc3)ccc12)N[*:1])[*:2]; Trp(7-Ph) = N[C@@H](Cc1c[nH]c2c(-c3ccccc3)cccc12)C(=O)O; X4 = O=C([C@H](Cc1c[nH]c2c(-c3ccsc3)cccc12)N[*:1])[*:2]; Abu(4-yl) = O=C([C@H](CC[*:3])N[*:1])[*:2]; 2Nal = N[C@@H](Cc1ccc2ccccc2c1)C(=O)O; AEF = NCCOc1ccc(C[C@H](N)C(=O)O)cc1; Pen = CC(C)(S)[C@H](N)C(=O)O; αMeK = C[C@](N)(CCCCN)C(=O)O
Legend:
Assay type in all cases: in vitro ADME
[1] = Stability in cynomolgus monkey fecal homogenate (anaerobic); conditions: pH 6.8, 20% cynomolgus monkey fecal homogenate, 37° C., up to 24 hours, read-out: t1/2: Monkey Feces anaerobic (converted)
Protocol: (§1) Studies were carried out in human or cynomolgus monkey fecal homogenate to evaluate gastrointestinal stability of the peptide inhibitors of the present invention.
(§2) Fecal homogenate ([…]) was prepared by adding 4 mL of growth medium (1 liter contains 2 g peptone water powder, 2 g yeast extract, 0.1 g NaCl, 0.04 g KH2PO4, 0.01 g CaCl2.6H2O, 0.01 g MgSO4.7H2O, 2 mL Tween 80, 0.5 g bile salts, 0.5 g L-cysteine HCl, 2 g NaHCO3, and 10 μL Vitamin K, pH adjusted to 6.8, and sterilized by filtration through a 0.22 μm filter) to every gram of feces (pooled freshly collected human or cynomolgus monkey feces). The suspension was vortexed to break up large clumps, and homogenized using a bead mill homogenizer. Centrifuged the homogenate at 2800×g for 15 min. The supernatant is taken out and used for incubations. DMSO stocks (10 mM) were first prepared for the test compounds. Incubations were performed in an anaerobic chamber conditioned at 37° C. Aliquots of the DMSO solutions were dosed into 1.0 mL aliquots of 20% fecal homogenate, which are pre-warmed to 37° C. The final test compound concentration was 20 μM. At each timepoint (0, 20 min, 1, 3, 6, or 24 hours), 100 μL aliquot of each incubation mixture is taken out and added to separate tubes containing 300 μL of 50% acetonitrile/50% methanol and an internal standard to terminate the reaction. Samples were taken out of the anaerobic chamber and stored at 4° C. until the end of the experiment. After the final timepoint is sampled, the tubes were mixed and then centrifuged at 3,000 rpm for 10 minutes. Aliquots of the supernatant were removed, diluted 1:1 into distilled water containing 0.1% formic acid, and analyzed by LC/MS/MS. Percent remaining at each timepoint was calculated based on the peak area response ratio of test to compound to internal standard. Time 0 was set to 100%, and all later timepoints were calculated relative to time 0. Half-lives were calculated by fitting to a first-order exponential decay equation using Graphpad or Excel.

[2] = Stability in rat plasma; conditions: both sexes, SD rat plasma, EDTA, 37° C., up to 24 hours, read-out: t1/2: Rat Plasma EDTA
Protocol: Peptides of interest (20 μM) were incubated with pre-warmed rat plasma (SD rat, mixed gender pooled, EDTA, filtered through 0.22 μm, BioreclamationIVT) at 37° C. Aliquots were taken at various time points up to 24 hours (e.g. 0, 0.25, 1, 3, 6 and 24 hr), and immediately quenched with 4 volumes of organic solvent (acetonitrile/methanol (1:1) and 0.1% formic acid, containing 1 μM internal standard). Quenched samples were stored at 4° C. until the end of the experiment and centrifuged at 4,000 rpm for 10 minutes. The supernatant were diluted 1:1 with deionized water and analyzed using LC-MS. Percentage remaining at each time point was calculated based on the peak area ratio (analyte over internal standard) relative to the initial level at time zero. Half-lives were calculated by fitting to a first-order exponential decay equation using GraphPad.

[3] = Stability in simulated intestinal fluid (SIF); conditions: 37° C.; for SIF t1/2: 100 fold dilution of standard SIF concentration, 20 μM; for half-life at 20 μM: pH 6.8, 100 fold dilution of standard SIF concentration, read-out: SIF t1/2 (converted)
Protocol: Studies were carried out in simulated intestinal fluid (SIF) and simulated gastric fluid (SGF) to evaluate gastric stability of the peptide inhibitors of the present invention. In addition, studies were carried out to assess redox stability of the peptide inhibitors of the present invention.
SIF was prepared by adding 6.8 g of monobasic potassium phosphate and 10.0 g of pancreatin to 1.0 L of water. After dissolution, the pH was adjusted to 6.8 using NaOH. DMSO stocks (2 mM) were first prepared for the test compounds. Aliquots of the DMSO solutions were dosed into 6 individual tubes, each containing 0.5 mL of SIF, which is pre-warmed to 37° C. The final test compound concentration was 20 μM. The vials were kept in a benchtop Thermomixer® for the duration of the experiment. At each timepoint (0, 5, 10, 20, 40, 60, or 360 minutes or 24 hours), 1.0 mL of acetonitrile containing 1% formic acid was added to one vial to terminate the reaction. Samples were stored at 4° C. until the end of the experiment. After the final timepoint is sampled, the tubes were mixed and then centrifuged at 3,000 rpm for 10 minutes. Aliquots of the supernatant were removed, diluted 1:1 into distilled water containing internal standard, and analyzed by LCMS/MS. Percent remaining at each timepoint was calculated based on the peak area response ratio of test to compound to internal standard. Time 0 was set to 100%, and all later timepoints were calculated relative to time 0. Half-lives were calculated by fitting to a first-order exponential decay equation using Graphpad.

[4] = Stability in human fecal homogenate (anaerobic); conditions: pH 6.8, 20% human fecal homogenate, 37° C., up to 24 hours, read-out: t1/2: Human Feces anaerobic
Protocol: as §1, §2

[5] = 20% fecal homogenate (supernatant)

Structure (SMILES) | half-life at 20 μM [1] | half-life at 20 μM ([2]; pooled) | SIF t1/2 [3] | half-life at 20 μM [4] | half-life at 20 μM [1, 5] | half-life at 20 μM [2] | half-life at 20 μM [4, 5] | half-life at 20 μM [3]
COc1cccc(-c2cccc3c(C[C@@H]4NC(=O)[C@H]([C@@H](C)O)NC(=O)[C@H](CC(N)=O)NC(=O)[C@@H](NC(C)=O)C(C)(C)SSC(C)(C)[C@@H](C(=O)N[C@@H](Cc5ccc(OCCN)cc5)C(=O)N[C@@H](Cc5ccc6ccccc6c5)C(=O)N[C@@](C)(CCCCN)C(=O)N[C@@H](CCCCNC(C)=O)C(=O)N[C@@H](CC(N)=O)C(=O)N[C@H](CCCCN)C(N)=O)NC(=O)[C@H](CCCCNC(C)=O)NC4=O)c[nH]c23)c1 [Peptide 8, Ac-[Pen]-N-T-[W(7-(3-OMePh))][Lys(Ac)]-[Pen]-Phe[4-(2-aminoethoxy)]-[2-Nal]-[a-MeLys]-[Lys(Ac)]-N-[(D)Lys)]-NH2] (Ac-[Pen]NT[X8]K(Ac)[Pen][AEF][2Nal][αMeK]K(Ac)N[dK]-NH2; disulfide 1-6) | > 24 h | > 24 h | 24 h | > 24 h | – | – | – | –
CC(=O)NCCCC[C@H](NC(=O)[C@](C)(CCCCN)NC(=O)[C@H](Cc1ccc2ccccc2c1)NC(=O)[C@H](Cc1ccc(OCCN)cc1)NC(=O)[C@H]1NC(=O)[C@H](CCC(N)=O)NC(=O)[C@H](Cc2c[nH]c3c(-c4ccsc4)cccc23)NC(=O)[C@H]([C@@H](C)O)NC(=O)[C@H](CC(N)=O)NC(=O)[C@@H](NC(C)=O)C(C)(C)SSC1(C)C)C(=O)N[C@@H](CC(N)=O)C(=O)N[C@H](CCCCN)C(N)=O [Peptide 2] (Ac-[Pen]NT[X4]Q[Pen][AEF][2Nal][αMeK]K(Ac)N[dK]-NH2; disulfide 1-6) | – | – | 24 h | – | > 24 h | > 24 h | > 24 h | –
CC(=O)NCCCC[C@@H]1NC(=O)[C@H](Cc2c[nH]c3cc(-c4ccccc4)ccc23)NC(=O)[C@H]([C@@H](C)O)NC(=O)[C@H](CC(N)=O)NC(=O)[C@@H](NC(C)=O)C(C)(C)SSC(C)(C)[C@@H](C(=O)N[C@@H](Cc2ccc(OCCN)cc2)C(=O)N[C@@H](Cc2ccc3ccccc3c2)C(=O)N[C@@](C)(CCCCN)C(=O)N[C@@H](CCCCNC(C)=O)C(=O)N[C@@H](CC(N)=O)C(=O)N[C@H](CCCCN)C(N)=O)NC1=O [Peptide 6, Ac-[Pen]-N-T-[W(6-Ph)]-[Lys(Ac)]-[Pen]-Phe[4-(2-aminoethoxy)]-[2-Nal]-[a-MeLys]-[Lys(Ac)]-N-[(D)Lys)]-NH2] (Ac-[Pen]NT[X7]K(Ac)[Pen][AEF][2Nal][αMeK]K(Ac)N[dK]-NH2; disulfide 1-6) | > 24 h | > 24 h | 24 h | > 24 h | – | – | – | –
CC(=O)NCCCC[C@@H]1NC(=O)[C@H](Cc2c[nH]c3c(-c4ccccc4)cccc23)NC(=O)[C@H]([C@@H](C)O)NC(=O)[C@H](CCC(N)=O)NC(=O)[C@@H](NC(=O)[C@@H](CCCNC(=N)N)NC(C)=O)CCSC[C@@H](C(=O)N[C@@H](Cc2ccc(OCCN)cc2)C(=O)N[C@@H](Cc2ccc3ccccc3c2)C(=O)N[C@@](C)(CCCCN)C(=O)N[C@@H](CCCCNC(C)=O)C(=O)N[C@@H](CC(N)=O)C(N)=O)NC1=O [Peptide 4, Ac-[(D)Arg]-[Abu]-Q-T-[W(7-Ph)]-[Lys(Ac)]-[Cys]-Phe[4-(2-aminoethoxy)]-[2-Nal]-[a-MeLys]-[Lys(Ac)]-NNH2] (Ac-[dR][Abu(4-yl)]QT[Trp(7-Ph)]K(Ac)C[AEF][2Nal][αMeK]K(Ac)N-NH2; thioether 2-7) | 14.1 h | > 24 h | – | > 24 h | – | – | – | 5.1 h
CC(=O)NCCCC[C@@H]1NC(=O)[C@H](Cc2c[nH]c3c(-c4ccccc4)cccc23)NC(=O)[C@H]([C@@H](C)O)NC(=O)[C@H](CCC(N)=O)NC(=O)[C@@H](NC(C)=O)CCSC[C@@H](C(=O)N[C@@H](Cc2ccc(OCCN)cc2)C(=O)N[C@@H](Cc2ccc3ccccc3c2)C(=O)N[C@@](C)(CCCCN)C(=O)N[C@@H](CCCCNC(C)=O)C(=O)N[C@@H](CC(N)=O)C(=O)N[C@H](CCCCN)C(N)=O)NC1=O [Peptide 19, Ac-[Abu]-Q-T-[W(7-Ph)]-[Lys(Ac)]-[Cys]-Phe[4-(2-aminoethoxy)]-[2-Nal]-[a-MeLys]-[Lys(Ac)]-N-[(D)Lys]-NH2] (Ac-[Abu(4-yl)]QT[Trp(7-Ph)]K(Ac)C[AEF][2Nal][αMeK]K(Ac)N[dK]-NH2; thioether 1-6) | 21.8 h | > 24 h | – | > 24 h | – | – | – | 17.8 h
CC(=O)NCCCC[C@@H]1NC(=O)[C@H](Cc2c[nH]c3c(-c4cccc(C(C)C)c4)cccc23)NC(=O)[C@H]([C@@H](C)O)NC(=O)[C@H](CC(N)=O)NC(=O)[C@@H](NC(C)=O)C(C)(C)SSC(C)(C)[C@@H](C(=O)N[C@@H](Cc2ccc(OCCN)cc2)C(=O)N[C@@H](Cc2ccc3ccccc3c2)C(=O)N[C@@](C)(CCCCN)C(=O)N[C@@H](CCCCNC(C)=O)C(=O)N[C@@H](CC(N)=O)C(=O)N[C@H](CCCCN)C(N)=O)NC1=O [Peptide 11, Ac-[Pen]-N-T-[W(7-(3-iPrPh))]-[Lys(Ac)]-[Pen]-Phe[4-(2-aminoethoxy)]-[2-Nal]-[a-MeLys]-[Lys(Ac)]-N-[(D)Lys)]-NH2] (Ac-[Pen]NT[X5]K(Ac)[Pen][AEF][2Nal][αMeK]K(Ac)N[dK]-NH2; disulfide 1-6) | > 24 h | > 24 h | 24 h | > 24 h | – | – | – | –
CC(=O)NCCCC[C@@H]1NC(=O)[C@H](Cc2c[nH]c3c(-c4ccccc4)cccc23)NC(=O)[C@H]([C@@H](C)O)NC(=O)[C@H](CCC(N)=O)NC(=O)[C@@H](NC(=O)[C@@H](CCCNC(=N)N)NC(C)=O)CCSC[C@@H](C(=O)N[C@@H](Cc2ccc(OCCN)cc2)C(=O)N[C@@H](Cc2ccc3ccccc3c2)C(=O)N[C@@](C)(CCCCN)C(=O)N[C@@H](CCCCNC(C)=O)C(=O)N[C@@H](CC(N)=O)C(=O)N[C@H](CC(C)C)C(N)=O)NC1=O [Peptide 3, Ac-[(D)Arg]-Abu-Q-T-[W(7-Ph)]-[Lys(Ac)]-[Cys]-Phe[4-(2-aminoethoxy)]-[2-Nal]-[a-MeLys]-[Lys(Ac)]-N-[(D)Leu]-NH2] (Ac-[dR][Abu(4-yl)]QT[Trp(7-Ph)]K(Ac)C[AEF][2Nal][αMeK]K(Ac)N[dL]-NH2; thioether 2-7) | > 24 h | > 24 h | 24 h | > 24 h | – | – | – | –
